Experiments:
[1] = target: Recombinant Human NF-Kappab-Inducing Kinase (NIK/MAP3K14) (Homo sapiens, UniProt Q99558); test: Inhibition of auto-phosphorylation of recombinant human NIK/MAP3K14 (AlphaScreen); format: biochemical; details: NIK/MAP3K14 auto-phosphorylation, 5 microM ATP, 1 nM enzyme, 2 h at 25° C.; average of values; read-out: Assay 1 IC50
Procedure, shortened: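 AlphaScreen read-out used anti-phospho-IKK Ser176/180 antibody after 2 h, 25 °C incubation of compound, 1 nM GST-NIK and 5 µM ATP (final DMSO 0.7%). Percent inhibition referenced to high (enzyme) and low (no enzyme, no ATP) controls; sigmoidal curve fitting gave IC50.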

[2] = system: p-IKKα levels in L363 (NIK translocated multiple myeloma) cells; test: Effect of compounds on p-IKKα levels in L363 cells (AlphaLISA SureFire Ultra); format: cell-based; details: Homo sapiens, L-363; L363 cells, BAFF stimulated, MG132, 6 h; average of values; read-out: Assay 2 IC50
Procedure, shortened: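 Phospho-IKKα (Ser 176/180) was quantified by AlphaLISA in lysed L363 cells after 6 h compound exposure (0.3% DMSO, 11 points, 1:3) alongside 250 ng/ml BAFF and 10 uM MG132, following overnight BAFF priming in low-serum DMEM. Duplicate curves were scaled between BAFF/DMSO/MG132 and unstimulated DMSO wells, then fitted sigmoidally for IC50.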

Recombinant Human NF-Kappab-Inducing Kinase (NIK/MAP3K14), sequence (Q99558 whole entry): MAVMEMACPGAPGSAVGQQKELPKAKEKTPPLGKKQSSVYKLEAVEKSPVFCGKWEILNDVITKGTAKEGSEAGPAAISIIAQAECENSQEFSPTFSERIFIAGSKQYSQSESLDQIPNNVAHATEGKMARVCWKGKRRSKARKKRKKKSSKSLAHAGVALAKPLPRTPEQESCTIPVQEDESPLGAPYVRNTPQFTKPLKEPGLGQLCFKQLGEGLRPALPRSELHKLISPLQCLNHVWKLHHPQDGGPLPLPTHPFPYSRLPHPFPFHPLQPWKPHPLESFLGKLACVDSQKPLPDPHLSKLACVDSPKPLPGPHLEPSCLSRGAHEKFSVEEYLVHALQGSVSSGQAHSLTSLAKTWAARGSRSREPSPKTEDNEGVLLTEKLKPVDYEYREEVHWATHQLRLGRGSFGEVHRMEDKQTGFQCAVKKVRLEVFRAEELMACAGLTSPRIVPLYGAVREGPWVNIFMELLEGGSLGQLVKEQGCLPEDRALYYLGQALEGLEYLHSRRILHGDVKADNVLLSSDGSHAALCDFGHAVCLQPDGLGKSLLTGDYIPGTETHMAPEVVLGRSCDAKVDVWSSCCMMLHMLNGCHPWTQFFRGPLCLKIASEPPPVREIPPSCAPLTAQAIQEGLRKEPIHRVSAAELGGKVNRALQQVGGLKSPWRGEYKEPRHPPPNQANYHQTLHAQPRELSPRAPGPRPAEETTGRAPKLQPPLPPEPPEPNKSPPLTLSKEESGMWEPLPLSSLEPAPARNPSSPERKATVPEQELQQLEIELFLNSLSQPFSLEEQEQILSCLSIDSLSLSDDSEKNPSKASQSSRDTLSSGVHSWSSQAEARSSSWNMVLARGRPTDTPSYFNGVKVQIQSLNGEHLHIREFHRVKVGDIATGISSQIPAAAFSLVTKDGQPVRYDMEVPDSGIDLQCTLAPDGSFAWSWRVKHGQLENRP

Row | Compound | IC50 [1] | IC50 [2]
1 | COc1cc(-c2cc(-c3cc([C@@]4(O)C(=O)N(C)CC4(F)F)on3)ccc2F)nc2c(N)ncnc12 [Example 119, (R)-3-(3-(3-(4-Amino-8-methoxypyrido[3,2-d]pyrimidin-6-yl)-4-fluorophenyl)isoxazol-5-yl)-4,4-difluoro-3-hydroxy-1-methylpyrrolidin-2-one] | < 0.1 µM | 0.1 to 0.5 µM
2 | Cc1cc(N2CCC[C@H](c3cc([C@]4(O)CCN(C)C4=O)on3)C2)nc2c(N)ncnc12 (single isomer, unassigned) [Example 200] | < 0.1 µM | > 0.501 µM
3 | COc1cc(-c2cccc(-c3cc([C@]4(O)CCN(C)C4=O)on3)c2)nc2c(N)ncnc12 [Example 118, (R)-3-(3-(3-(4-Amino-8-methoxypyrido[3,2-d]pyrimidin-6-yl)phenyl)isoxazol-5-yl)-3-hydroxy-1-methylpyrrolidin-2-one] | < 0.1 µM | 0.1 to 0.5 µM
4 | CN1CC[C@@](O)(c2cc(-c3cccc(-c4nccc(C(N)=O)n4)c3)no2)C1=O [Example 146, (R)-2-(3-(5-(3-hydroxy-1-methyl-2-oxopyrrolidin-3-yl)isoxazol-3-yl)phenyl)pyrimidine-4-carboxamide] | < 0.1 µM | > 0.501 µM
5 | CN1CC[C@@](O)(c2cc(-c3cccc(-n4nc(C(N)=O)c5cc(F)ccc54)c3)no2)C1=O [Example 101, (R)-5-Fluoro-1-(3-(5-(3-hydroxy-1-methyl-2-oxopyrrolidin-3-yl)isoxazol-3-yl)phenyl)-1H-indazole-3-carboxamide] | < 0.1 µM | 0.1 to 0.5 µM
6 | Cc1cn2cc(-c3cccc(-c4cc([C@]5(O)CCN(C)C5=O)on4)c3)ccc2n1 [Example 79, (R)-3-Hydroxy-1-methyl-3-(3-(3-(2-methylimidazo[1,2-a]pyridin-6-yl)phenyl)isoxazol-5-yl)pyrrolidin-2-one] | > 0.501 µM | > 0.501 µM
7 | CN1CC[C@@](O)(c2cc([C@@H]3CCCN(c4ccc5ncnc(N)c5n4)C3)no2)C1=O (single isomer, unassigned) [Example 202] | < 0.1 µM | > 0.501 µM
8 | CN1CC[C@@](O)(c2cc(-c3cccc(-c4ncc(Nc5cn[nH]c5)c(C(N)=O)n4)c3)no2)C1=O [Example 141, (R)-5-((1H-Pyrazol-4-yl)amino)-2-(3-(5-(3-hydroxy-1-methyl-2-oxopyrrolidin-3-yl)isoxazol-3-yl)phenyl)pyrimidine-4-carboxamide] | < 0.1 µM | < 0.1 µM
9 | Cc1n[nH]c2nc(-c3cccc(-c4cc([C@]5(O)CCN(C)C5=O)on4)c3)cc(C(N)=O)c12 [Example 84, (R)-6-(3-(5-(3-Hydroxy-1-methyl-2-oxopyrrolidin-3-yl)isoxazol-3-yl)phenyl)-3-methyl-1H-pyrazolo[3,4-b]pyridine-4-carboxamide] | > 0.501 µM | > 0.501 µM
10 | COc1cc2c(cc1-c1cccc(-c3cc([C@]4(O)CCN(C)C4=O)on3)c1)COC2 [Example 81, (R)-3-Hydroxy-3-(3-(3-(6-methoxy-1,3-dihydroisobenzofuran-5-yl)phenyl)isoxazol-5-yl)-1-methylpyrrolidin-2-one] | > 0.501 µM | > 0.501 µM
11 | CN1CC[C@@](O)(c2cc(-c3cccc(-c4ccc5nccn5c4)c3)no2)C1=O [Example 71, (R)-3-Hydroxy-3-(3-(3-(imidazo[1,2-a]pyridin-6-yl)phenyl)isoxazol-5-yl)-1-methylpyrrolidin-2-one] | > 0.501 µM | > 0.501 µM
12 | CN1CC[C@@](O)(c2cc(-c3cccc(-n4nc(C(N)=O)c5ccccc54)c3)no2)C1=O [Example 166, (R)-1-(3-(5-(3-hydroxy-1-methyl-2-oxopyrrolidin-3-yl)isoxazol-3-yl)phenyl)-1H-indazole-3-carboxamide] | < 0.1 µM | 0.1 to 0.5 µM
13 | CN1CC[C@@](O)(c2cc(-c3cccc(-c4ccnc5[nH]ccc45)c3)no2)C1=O [Example 49, (R)-3-(3-(3-(1H-Pyrrolo[2,3-b]pyridin-4-yl)phenyl)isoxazol-5-yl)-3-hydroxy-1-methylpyrrolidin-2-one] | < 0.1 µM | > 0.501 µM
14 | CN1CC[C@@](O)(c2cc(-c3cccc(-c4cccc5c(=O)[nH]cnc45)c3)no2)C1=O [Example 197, (R)-8-(3-(5-(3-Hydroxy-1-methyl-2-oxopyrrolidin-3-yl)isoxazol-3-yl)phenyl)quinazolin-4(3H)-one] | > 0.501 µM | > 0.501 µM
15 | CN1CC[C@@](O)(c2cc(-c3cccc(-c4ncc(NCC5COC5)c(C(N)=O)n4)c3)no2)C1=O [Example 107, (R)-2-(3-(5-(3-Hydroxy-1-methyl-2-oxopyrrolidin-3-yl)isoxazol-3-yl)phenyl)-5-((oxetan-3-ylmethyl)amino)pyrimidine-4-carboxamide] | < 0.1 µM | < 0.1 µM
16 | CN1CC[C@@](O)(c2cc(-c3cccc(-c4cc(-c5ccns5)cc(C(N)=O)n4)c3)no2)C1=O [Example 183, (R)-6-(3-(5-(3-Hydroxy-1-methyl-2-oxopyrrolidin-3-yl)isoxazol-3-yl)phenyl)-4-(isothiazol-5-yl)picolinamide] | < 0.1 µM | > 0.501 µM
17 | CN1CC[C@@](O)(c2cc(-c3cccc(-c4cc5c(c(C(N)=O)n4)CCCC5)c3)no2)C1=O [Example 124, (R)-3-(3-(5-(3-Hydroxy-1-methyl-2-oxopyrrolidin-3-yl)isoxazol-3-yl)phenyl)-5,6,7,8-tetrahydroisoquinoline-1-carboxamide] | < 0.1 µM | > 0.501 µM
18 | CN1CC[C@@](O)(c2cc(-c3cccc(-c4ncc(N[C@H]5CCOC5)c(C(N)=O)n4)c3)no2)C1=O [Example 127, 2-(3-(5-((R)-3-hydroxy-1-methyl-2-oxopyrrolidin-3-yl)isoxazol-3-yl)phenyl)-5-(((S)-tetrahydrofuran-3-yl)amino)pyrimidine-4-carboxamide] | < 0.1 µM | < 0.1 µM
19 | CN1CC[C@@](O)(c2cc(-c3cccc(-c4cnc5cnccn45)c3)no2)C1=O [Example 61, (R)-3-Hydroxy-3-(3-(3-(imidazo[1,2-a]pyrazin-3-yl)phenyl)isoxazol-5-yl)-1-methylpyrrolidin-2-one] | 0.1 to 0.5 µM | > 0.501 µM
20 | CN1CC[C@@](O)(c2cc(-c3cccc(-c4nc(C(N)=O)c5ccc(F)cc5n4)c3)on2)C1=O [Example 160, (R)-7-Fluoro-2-(3-(3-(3-hydroxy-1-methyl-2-oxopyrrolidin-3-yl)isoxazol-5-yl)phenyl)quinazoline-4-carboxamide] | < 0.1 µM | > 0.501 µM
21 | COc1ncc(-c2cc(C(N)=O)nc(-c3cccc(-c4cc([C@]5(O)CCN(C)C5=O)on4)c3)c2)s1 [Example 191, (R)-6-(3-(5-(3-Hydroxy-1-methyl-2-oxopyrrolidin-3-yl)isoxazol-3-yl)phenyl)-4-(2-methoxythiazol-5-yl)picolinamide] | < 0.1 µM | 0.1 to 0.5 µM
22 | [2H]c1nc(N)c2nc(-c3cccc(-c4cc([C@]5(O)CCN(C)C5=O)n[nH]4)c3)ccc2n1 (single isomer, unassigned) [Example 38] | < 0.1 µM | > 0.501 µM
23 | Cc1nc(N)c2nc(-c3ccc(-c4cc([C@]5(O)CCN(C)C5=O)on4)o3)ccc2n1 [Example 159, (R)-3-(3-(5-(4-Amino-2-methylpyrido[3,2-d]pyrimidin-6-yl)furan-2-yl)isoxazol-5-yl)-3-hydroxy-1-methylpyrrolidin-2-one] | < 0.1 µM | 0.1 to 0.5 µM
24 | CN1CC[C@@](O)(c2cc(-c3cccc(-c4cc5cn[nH]c5c(C(N)=O)n4)c3)no2)C1=O [Example 143, (R)-5-(3-(5-(3-hydroxy-1-methyl-2-oxopyrrolidin-3-yl)isoxazol-3-yl)phenyl)-1H-pyrazolo[3,4-c]pyridine-7-carboxamide] | < 0.1 µM | < 0.1 µM
25 | Cc1n[nH]c(C)c1Nc1cnc(-c2cccc(-c3cc([C@]4(O)CCN(C)C4=O)on3)c2)nc1C(N)=O [Example 142, (R)-5-((3,5-Dimethyl-1H-pyrazol-4-yl)amino)-2-(3-(5-(3-hydroxy-1-methyl-2-oxopyrrolidin-3-yl)isoxazol-3-yl)phenyl)pyrimidine-4-carboxamide] | < 0.1 µM | 0.1 to 0.5 µM
26 | Cc1ccc(-c2cccc(C(N)=O)n2)cc1-c1cc([C@]2(O)CCN(C)C2=O)on1 [Example 150, (R)-6-(3-(5-(3-Hydroxy-1-methyl-2-oxopyrrolidin-3-yl)isoxazol-3-yl)-4-methylphenyl)picolinamide] | > 0.501 µM | > 0.501 µM
27 | CN1CC[C@@](O)(c2cn(-c3cccc(-c4nc(C(N)=O)n5ccccc45)c3)nn2)C1=O [Example 15, (R)-1-(3-(4-(3-Hydroxy-1-methyl-2-oxopyrrolidin-3-yl)-1H-1,2,3-triazol-1-yl)phenyl)imidazo[1,5-a]pyridine-3-carboxamide] | < 0.1 µM | < 0.1 µM
28 | [2H]c1nc(N)c2nc(-c3cccc(-c4cc([C@@]5(O)CCN(C)C5=O)n[nH]4)c3)ccc2n1 (single isomer, unassigned) [Example 37] | > 0.501 µM | > 0.501 µM
29 | Cc1ncc(C#N)cc1Nc1sc(-c2cccc(-c3cc([C@]4(O)CCN(C)C4=O)on3)c2)nc1C(N)=O [Example 235, (R)-5-((5-Cyano-2-methylpyridin-3-yl)amino)-2-(3-(5-(3-hydroxy-1-methyl-2-oxopyrrolidin-3-yl)isoxazol-3-yl)phenyl)thiazole-4-carboxamide] | < 0.1 µM | < 0.1 µM
